In patent publication US20220023269A1, “Methods Of Treating Diabetes In Severe Insulin-Resistant Diabetic Subjects” (Balticgruppen Bio AB, priority 2018, published 2022):

Key:
Assay type in all cases: in vivo
[1] = tested on: diet-induced obese C57BL/6J mice; assay: Combination therapy AMPK activator + SGLT2 inhibitor in DIO mice; settings: 2 weeks oral gavage, Compound 1 75 mg/kg, canagliflozin 10 mg/kg
Procedure: Male C57BL/6J mice, 8 weeks of age were purchased from Jackson, Charles River Laboratories, Inc. (Germany). All animals were housed in the Umeå University animal facility (Umeå Centre for Comparative Biology; UCCB) with a 12:12 hour light-dark cycle (lights on at 6 a.m.) and a constant temperature of 21° C. The animals were ear marked with a unique identification number, and groups of 5 mice were housed in transparent polycarbonate cages that comply with the requirements of the Code of Practice for the housing and care of animals used in scientific procedures. Wood chips were used as bedding material and environmental enrichment was provided. Animals were allowed to acclimate for 15 weeks to their new environment before the onset of the study. The animals were allowed ad libitum access to tap water throughout the accommodation and study period. During the acclimation period, the animals were allowed a standard pelleted diet (CRM (E) Rodent, Special Diets Services, Scanbur BK, Sweden). At the start of the study, the standard diet was changed to a very high fat diet (vHFD; Cat. No. D12492, Research Diets, Inc.) and this diet was kept throughout the whole study period. All of the procedures were approved by the Local Ethics Review Committee on Animal Experiments, Umeå Region.
23 Weeks old male C57BL/6J mice were fed HFD to promote diet-induced obesity (DIO) and administered once daily by oral gavage; vehicle (phosphate buffer pH 7.3, 2% w/v methyl cellulose; n=11), canagliflozin 10 mg/kg (n=14), Compound 1 at 75 mg/kg (n=14) and the combination of canagliflozin 10 mg/kg and Compound 1 at […] (n=15). After 2 weeks of treatment, fasted (6 hour) blood glucose and plasma insulin levels (determined in tail vein blood samples) were analysed. Food intake and weight were monitored throughout the study.
Blood samples were collected from the tail vein in Potassium-EDTA vials and plasma was separated by centrifugation and stored at −20° C. until assayed. Plasma insulin was determined with mouse insulin ELISA (Ultra Sensitive Mouse insulin ELISA Kit). Glucose concentrations were analysed in tail vein blood using a OneTouch® Ultra®2 Blood Glucose Meter (LifeScan, Inc).
Results shown in the figures are expressed as means±standard error of the mean (S.E.M.) for the number of animals per group. Statistical significance between the control group and the three treatment groups were analysed by Student's t-test, with P<0.05 considered statistically significant.

[2] = Pharmacokinetics in mice and rats (plasma, liver, brain); settings: rodents
Procedure: Pharmacokinetics of the test material in C57BL/6JBomTac mice and NTac:SD rats were determined via UHPLC-ESI Triple Quad MSMS in plasma from non-fasted animals. The test material (40 mg/kg test material) was administered via oral gavage and 4-, 8-, 12- and 24-hours after administration blood was collected. Test material levels were determined in liver and brain from non-fasted Crl:CD (SD) rats administered the test material (40 mg/kg test material), once daily for 3 weeks, via oral gavage. The test material was extracted in acetonitrile and levels determined using UHPLC-ESI Triple Quad MSMS.

[3] = tested on: CBA mice on HFD; assay: Echocardiography (LV function); settings: for heart rate: anesthetized
Procedure: Left ventricle structure and function were analysed with transthoracic, high-frequency echocardiography using the MS550D transducer. The examination was performed during light isoflurane anaesthesia (1.5-2.0% in 800 mL oxygen). Anaesthesia level was adjusted to keep the respiration rate at 80-110 breaths per minute. Left ventricular volumes were determined in B-mode using a Simpson's rule reconstruction. All images were analysed off-line in a blinded way using the Vevo LAB software 1.7.0. Stroke volume, cardiac output and heart rate were analysed, as well as wall thicknesses and left ventricle diameter. Three measurements/animal was performed for mean values.

[4] = tested on: CBA mice on HFD (DIO mice); assay: CBA mice on test material-HFD (0.4, 0.8, 2 mg/g) for 7 w
Procedure: 12 weeks old CBA mice were randomised into a HFD and three test material-HFD groups (0.4 mg/g, 0.8 mg/g, and 2 mg/g) for 7 weeks. 16-17 weeks old CBA mice on regular diet was used as controls where indicated.
Animals were housed at 12:12 hour light/dark cycle in a temperature/humidity controlled (22° C./50% humidity) room and ad libitum feeding with either standard chow (Special Diet Service #801730), high fat diet (HFD) (Research diets, Inc. #D12492) or HFD (Research diets, Inc. #D12492) custom formulated with test material at 2 mg/g test material, 0.8 mg/g test material and 0.4 mg/g test material, respectively.
All cell lines were lysed in 0.1 M Tris-HCl, pH 6.8, 2% SDS, 10 mM sodium fluoride (SIGMA #S7920), 10 mM β-glycerophosphate (SIGMA #G6376), and 1 mM sodium vanadate (SIGMA #72060) and supernatant collected after 1 minute at 14,000 rpm. Islets (human and mouse) were lysed in 0.1 M Tris-HCl, pH 6.8, 2% SDS, protease inhibitor (Roche #04 693 124 001) and phosphatase inhibitor (Roche #04 906 837 001). Right calf muscle, heart, iWAT, and interscapular BAT was crushed in a pestle using liquid nitrogen and homogenised in ice cold RIPA buffer (150 mM sodium chloride (SIGMA #S7653), 1.0% NP40 (USB), 0.5% sodium deoxycholate (SIGMA #D6750), 0.1% SDS, 50 mM Tris pH 8.0, 20 mM sodium pyrophosphate (SIGMA #71515), 10 mM sodium fluoride, 10 mM β-glycerolphosphate, 1 mM sodium vanadate and protease inhibitor cocktail (Roche #04693124001), 1 tablet/10 ml lysis buffer). The supernatant was collected after 2 min at 14,000 rpm. This procedure was repeated until all fat was eliminated and the supernatant was clear, at 4° C. Samples were analysed on 4-15% polyacrylamide gels. Values were normalised toward AMPKα, β-Actin, GAPDH or the respective non-phosphorylated counterpart. […]

[5] = test material-HFD 0.8 or 2 mg/g, 6 w
[6] = 0.4, 0.8 and 2 mg/g in HFD, 6 w

With `O=C(Nc1nc(=O)n(Cc2ccc(Cl)cc2)s1)c1ccc(Cl)cc1` [test material, 4-chloro-N-[2-[(4-chlorophenyl)methyl]-3-oxo-1,2,4-thiadiazol-5-yl]benzamide] the HOMA-IR [1] was “statistically significant (***) reduction”, the fasted plasma insulin ([1]; 6 hour fast) was “statistically significant (***) reduction” and the blood-brain barrier crossing [2] was “does not cross the blood-brain barrier”. The oral availability [2] was “orally available”, the plasma half-life [2] was “long” and the heart rate ([3]; 0.8 mg/g) was “normalized”. For the same compound, the heart rate ([3]; 2 mg/g) was “reduced heart rate”, the “increase in stroke volume compared with both RD and HFD” value ([3]; test material-HFD 0.8 mg/g and 2 mg/g, 6 w) was about 20% and the end-diastolic volume [3, 5] was “normalized end-diastolic volume”. The end-systolic volume [3, 5] was “dose-dependently improved, but did not fully restore”, the “expression of Cd36 and Cpt1b in BAT” value ([4]; 2 mg/g in HFD) was “significantly increased the expression of Cd36” and the “expression of Fas, Scd1 and Acc1 in BAT” value ([4]; 2 mg/g in HFD) was “potently reduced the expression”. The “weights of BAT pads” value ([4]; 2 mg/g in HFD, vs HFD) was “reduced”, the “weights of iWAT and eWAT fat pads” value ([4]; 2 mg/g in HFD, vs HFD) was “markedly lower weights” and the “dysglycemia (fasted blood glucose)” value [4, 6] was “potently prevented”. The “hyperinsulinemia (fasted insulin)” value [4, 6] was “potently prevented”, the “insulin resistance (HOMA-IR)” value [4, 6] was “potently prevented” and the “pAMPK in calf muscle” value ([4]; 0.4, 0.8 and 2 mg/g in HFD, 7 w) was “dose-dependently increased pAMPK”. For the same compound, the heart glycogen content ([4]; 0.8 or 2 mg/g in HFD, 7 w) was “reduced in a dose-dependent manner”, the heart weight/tibia length ([4]; 0.8 or 2 mg/g in HFD, 7 w) was “did not cause an increase in heart weight/tibia length” and the “pAMPK levels in the heart” value ([4]; 0.8 or 2 mg/g in HFD, 7 w) was “significantly increased pAMPK levels in the heart”. The “Cpt1b mRNA levels in liver” value ([4]; DIO mice) was “dose-dependently increased Cpt1b”, the hepatic steatosis ([4]; DIO mice) was “prevented and reduced hepatic steatosis” and the “Acc2, Fas and Scd1 mRNA levels in liver” value ([4]; DIO mice, dose-dependent) was “decreased Acc2, Fas, and Scd1 mRNA levels”. For the same compound, the “UCP1 expression in BAT and iWAT” value ([4]; slightly, dose-dependent) was “reduced UCP1 expression”, the “Atgl mRNA levels in iWAT” value ([4]; test material-HFD 7 w) was “increased both p-S406 ATGL levels and Atgl mRNA levels” and the “p-S406 ATGL levels in iWAT” value ([4]; test material-HFD 7 w) was “increased both p-S406 ATGL levels and Atgl mRNA levels”.
